The results in this text go back to PubChem BioAssay (NCI).

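In this assay, cells in 96-well plates receive the compound at five concentrations for 48 hours. Endpoints are linearly interpolated between the surrounding concentrations. GI50 is the concentration that inhibits growth by half. TGI is the concentration that stops growth completely.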

Test in all cases: NCI anticancer screen, dose series, 48 h
The test system of assay [1] is OVCAR-5 ovarian.
Assay [2] concerns K-562 leukemia.
In assay [3] the test system is DU-145 prostate.
Assay [4] has as its system SR leukemia.
Assay [5] relates to RPMI-8226 leukemia.
Assay [6] relates to MDA-MB-435.
Assay [7] concerns RXF 393 renal.
The test system of assay [8] is NCI-H23 lung.
In assay [9] the test system is MDA-N.
Assay [10] has as its system BT-549 breast.

As for `CCCN1CCN(c2ccc3nc(-c4ccc5nc(-c6ccc(OCC)cc6)[nH]c5c4)[nH]c3c2)CC1`, the GI50 in [1] was 1.88 µM; in [2] it was 0.418 µM; in [3] it was 1.33 µM; in assay [4] it was 0.404 µM; in assay [5] it was 0.382 µM. Further, the TGI in assay [1] worked out at 3.36 µM; in [2], 1.82 µM; in [3], 2.78 µM; in assay [4], 2.58 µM; in assay [5], 2.85 µM.

For `N#Cc1ccccc1C#C/C=C\C#Cc1ccccn1`, the TGI in assay [6] is 20.4 µM; in assay [1] it was 58.6 µM; in [2], > 100 µM; in assay [3], 83.5 µM; in assay [4] it was 36.2 µM; in assay [7], 33.1 µM. The compound further returned a TGI in assay [8] of 25.5 µM.

Turning to `O=C(N/N=C/c1ccc(O)cc1)NNCCO`, the TGI in assay [6], in assay [9], in [10], in assay [1], in assay [2] and in [3] was > 100 µM each time. The TGI in assay [4] and in assay [8] was > 100 µM each time.

Take `Cc1ccnc2[nH]c(-c3ccc(Cl)cc3)cc(=O)c12`: the TGI in assay [9] was 4.59 µM; in [10] it was > 100 µM; in assay [1], > 100 µM; in [2], 60 µM; in assay [3], > 100 µM; in assay [4], 5.97 µM. Further, the TGI in assay [5] was > 58.5 µM; in assay [7] it was > 100 µM; in assay [8], > 100 µM.

`Nc1nc(Cl)cc(OCC2(CO)CCCCC2)n1`: the TGI in assay [6], in [9], in [1], in assay [3], in assay [4] and in assay [5] was > 100 µM each time. Also, the TGI in [7] and in [8] was > 100 µM each time.

As to `C#CCN(Cc1ccc2nc(-c3ccccc3)c(Cl)nc2c1)c1ccc(Cl)c(Cl)c1`, the TGI in [1], in [2], in [4] and in [8] was > 100 µM each time.

As to `COC(=O)C1=C(C(=O)OC)SC2(S1)C(C(=O)OC)=C(C(=O)OC)Sc1c2ssc1=O`, the TGI in [6] turned out to be 4.36 µM; in [9], 3.57 µM; in assay [10] it was 2.89 µM; in assay [1], 5.02 µM; in assay [2], 2.86 µM; in [3] it was 2.33 µM. The TGI in [5] came to 5.68 µM; in assay [7] it was 2.7 µM; in assay [8], 4.12 µM.

In the case of `CC(=O)OC1CC[C@@]2(C)C(=CC[C@@H]3[C@@H]2CC[C@]2(C)Nc4c(cnn4-c4ccc(F)cc4)C[C@@H]32)C1` (some centres not stated), the TGI in assay [6], in [9], in [10], in assay [1], in assay [2] and in [3] was > 100 µM in each case. In addition, the results for the TGI in assay [5], in assay [7] and in assay [8] were 28.3 µM, 11 µM and > 100 µM, respectively.

As to `O=C(/C=C/c1cc2ccccc2[nH]c1=O)c1ccc(O)cc1`, the GI50 is 2.94 µM in assay [6]; 1.95 µM in assay [10]; 3.2 µM in [1]; 3.89 µM in [2]; 4.02 µM in [3]; 3.2 µM in assay [5]. Besides, the figures for the GI50 in assay [7] and in assay [8] were 1.65 µM and 3.18 µM, respectively. Further, the TGI in assay [6] is 16.8 µM; in assay [10], 5.35 µM; in assay [1], 12.8 µM; in assay [2], > 100 µM; in assay [3], 14.3 µM; in [5] it was 24.8 µM. Further, the TGI in [7] was 3.23 µM; in [8] it was 20 µM.

As for `c1ccc(C2SCc3nc4ccccc4n32)cc1` (configuration not stated), the TGI in assay [1] is > 100 µM; in assay [2] it was > 100 µM; in assay [4], > 100 µM; in assay [5], 67.3 µM; in assay [7], > 100 µM; in assay [8], > 100 µM.

On to `CCN1CC2(CO)CCC(OC)C34C5CC6C(OC)CC(O)(C5C6OC)C(O)(C(OC)C23)C14` (configuration not stated), for which the TGI was > 209 µM in assay [1]; > 375 µM in assay [2]; > 375 µM in assay [5]; > 375 µM in [7]; > 375 µM in assay [8].

With `COc1c(C(=O)CC2c3c(cc4oc(C)cc(=O)c4c3OC)OC(=N)C2c2nc3ccccc3[nH]2)c(O)c(OC)c2occc12` (configuration not stated), the TGI in assay [6], in assay [9], in assay [10], in assay [1], in [2] and in assay [3] was > 100 µM in each case. The TGI in assay [5], in assay [7] and in assay [8] was > 100 µM each time.

For `COc1ccc(CNCCN2C(=O)c3ccc4c5c(ccc(c35)C2=O)C(=O)N(CCNCc2ccc(OC)c(OC)c2OC)C4=O)c(OC)c1OC`, in assay [6], the GI50 is 0.25 µM and the TGI worked out at 0.801 µM. For the same compound, in [7], the GI50 was 0.279 µM and the TGI was found to be 1.42 µM.

As for `CN(C)CC(O)CNC(=O)Nc1ccccc1` (configuration not stated), the TGI in assay [6], in [9], in [10], in assay [1], in assay [2] and in assay [3] was > 100 µM each time. For the same compound, the TGI in [5], in assay [7] and in assay [8] was > 100 µM in each case.

With `O=S1(=O)OCCOS(=O)(=O)C1C1c2ccccc2-c2ccccc21`, the TGI in assay [6], in [9], in assay [10], in [1], in [2] and in assay [3] was > 100 µM in each case. Moreover, the TGI in assay [5], in assay [7] and in assay [8] was > 100 µM throughout.

For the compound `O=C1C(Nc2ccc(S(=O)(=O)Nc3cnc4ccccc4n3)cc2)=CC(=Nc2ccc(S(=O)(=O)Nc3cnc4ccccc4n3)cc2)c2ccccc21`, the TGI was 34 µM in assay [6]; 34.8 µM in [9]; 30.8 µM in assay [1]; > 74.9 µM in assay [2]; 30.7 µM in assay [3]; > 73.9 µM in [4]. Also, the figures for the TGI in assay [5], in assay [7] and in assay [8] were > 77.8 µM, 32.3 µM and 36.1 µM, respectively.

Consider `CN(C)CCNC(=O)c1cccc2c(NC(CCCN=C(N)N)C(=O)O)c3ccccc3nc12` (configuration not stated), for which the TGI in [6] is 41.6 µM; in [9] it was > 100 µM; in [1] it was > 100 µM; in assay [2], > 100 µM; in [3], > 100 µM; in [4], > 100 µM. Also, the TGI in [5] was > 100 µM; in assay [8], 30.5 µM.

Consider `Cn1c(SCc2ccc([N+](=O)[O-])cc2)nnc1C12CC3CC(CC(C3)C1)C2`, for which the TGI in assay [6], in assay [9], in assay [10], in assay [1], in assay [2] and in assay [3] was > 10 µM throughout. The TGI in [5], in assay [7] and in [8] was > 10 µM in each case.

Turning to `CN(CCCNC(=O)c1[nH]nc2c1ccc1ccccc12)CCCNC(=O)c1[nH]nc2c1ccc1ccccc12`, the TGI is 7.71 µM in [6]; 4.52 µM in assay [9]; 29.4 µM in assay [10]; 37.2 µM in assay [1]; 31.8 µM in assay [3]; 30.5 µM in [7]. The compound also showed a TGI in assay [8] of 33 µM.

For `C#CCN1C(=O)CN2C(Cl)(Cl)C2(c2ccccc2)c2cc(Cl)ccc21` (configuration not stated), the TGI in assay [1], in assay [2], in assay [4], in assay [5], in assay [7] and in assay [8] was > 100 µM throughout.

As for `CNC(=O)/C(C#N)=C(\N)N1CCCC1`, the TGI in [6], in assay [9], in assay [1], in [2], in [3] and in [4] was > 100 µM in each case. Also, the TGI in assay [5], in [7] and in [8] was > 100 µM in each case.

Regarding `COC(=O)C12CCC(CC1=O)C2(C)C` (configuration not stated), the TGI in assay [2], in assay [4], in [5], in assay [7] and in assay [8] was > 100 µM throughout.

As for `C=c1c2ccccc2oc2nc3[nH]c(N)c(C#N)c(N)c3c(=N)c12`, the TGI in [6], in [9], in assay [10], in [1], in [2] and in assay [3] was > 100 µM in each case. Moreover, the TGI is > 100 µM in assay [5], > 100 µM in assay [7] and 62.7 µM in assay [8].

As for `O=C(Cn1cc(I)c(C(=O)NCC(O)CO)n1)NCC(O)CO` (configuration not stated), the TGI in [2], in assay [5], in [7] and in assay [8] was > 100 µM in each case.

Consider `CCOC(=O)C(NS(=O)(=O)c1ccccc1)(C(F)(F)F)P(=O)(OCC(C)C)OCC(C)C` (configuration not stated), for which the TGI in assay [6], in assay [9], in assay [1], in assay [2], in assay [3] and in assay [4] was > 100 µM each time. In addition, the TGI in assay [5], in assay [7] and in assay [8] was > 100 µM throughout.

In the case of `Cc1ccc2c(=O)cc(-c3ccccc3)[nH]c2n1`, the TGI in [6] was 0.0321 µM; in assay [9], 0.0999 µM; in assay [10], > 100 µM; in assay [1], > 100 µM; in [2], 6.57 µM; in assay [3] it was > 23.7 µM. Also, the TGI in assay [5] is > 15.1 µM; in assay [7] it was 0.486 µM; in assay [8], 16.8 µM.

As to `COc1ccccc1-c1nc[nH]c1-c1ccccc1OC`, the TGI in [9] was 34.9 µM; in assay [10] it was > 100 µM; in [1], > 100 µM; in assay [2] it was 65 µM; in [5] it was > 100 µM; in assay [7], 87.1 µM. Also, the TGI in [8] is > 100 µM.

Consider `CCc1cc2c(cc1O)CC[C@@H]1[C@@H]2CC[C@]2(C)[C@@H](O)CC[C@@H]12`, for which the TGI was determined as 4.99 µM in [6]; 8.62 µM in [9]; 39.4 µM in assay [1]; 14.5 µM in assay [2]; 24.5 µM in assay [3]; 10.9 µM in assay [4]. The compound further had a TGI in [8] of 20.6 µM. Also, the GI50 in assay [3] was 11.1 µM.

For `Nc1ccc2ncc(NCc3ccc(F)cc3)nc2c1`, the TGI in [1], in assay [2], in assay [4], in [5], in assay [7] and in assay [8] was > 100 µM in each case.

With `CC(=O)[C@H]1CC[C@@H]2[C@]1(C)CC=C1[C@]23C=C[C@]2(C[C@@H](O)CC[C@]12C)C(C(=O)O)C3C(=O)O` (some centres not stated), the TGI in assay [6], in assay [9], in assay [10], in assay [1], in [2] and in assay [3] was > 100 µM throughout. Also, the TGI in assay [5] and in assay [8] was > 100 µM each time.

For the compound `COc1ccc(/C=N/NC(=O)NCCNCCO)cc1`, the TGI in assay [1], in assay [2], in [4], in assay [5], in assay [7] and in assay [8] was > 100 µM throughout.

With `CC(=O)Nc1ccc(S(=O)(=O)Nc2cnc3ccccc3n2)cc1`, the TGI in [1], in assay [2], in [4], in [5], in assay [7] and in assay [8] was > 100 µM throughout.

Regarding `CCN(CC)CCNC(=O)C1COc2ccc(-c3cc(=O)c4ccccc4o3)cc2O1` (configuration not stated), the TGI is 56.7 µM in assay [1]; 49 µM in assay [2]; 55.2 µM in assay [5]; 35.4 µM in assay [7]; 60.3 µM in assay [8].
